In US20020147177A1, “Formulation of artemisinin” (priority 2001, published 2002):
≈ marks a conversion by molar mass, not a printed value.

Experiment: Solubility in water, shaken five days, HPLC
Format: physicochemical
Conditions: thermodynamic from solid, room temperature (25° C.)
Protocol: […] of each of the complexes and artemisinin crystals were separately shaken in 25 ml of water maintained at room temperature (25° C.) for five days. The solution was then filtered through a 0.2 μu membrane filter and suitably diluted before analysis. An analysis of the drug concentration in the solution was determined by high performance liquid chromatography using a method reported by Chan et al (1997).

solubility at 5 days: 55.7 ± 1.75 µg/mL (≈ 197 µM)
SMILES: C[C@@H]1CC[C@H]2[C@@H](C)C(=O)O[C@@H]3O[C@@]4(C)CC[C@@H]1[C@]32OO4 [artemisinin crystals, artemisinin]
